AC50 data for 6 compounds are collected here from ChEMBL document CHEMBL5291721, “A preclinical secondary pharmacology resource illuminates target-adverse drug reaction associations of marketed drugs” (Nat Commun, 2023).

In test [1] the target is T1, Alpha-2A adrenergic receptor (Homo sapiens, UniProt P08913).
T1 sequence (P08913 whole entry): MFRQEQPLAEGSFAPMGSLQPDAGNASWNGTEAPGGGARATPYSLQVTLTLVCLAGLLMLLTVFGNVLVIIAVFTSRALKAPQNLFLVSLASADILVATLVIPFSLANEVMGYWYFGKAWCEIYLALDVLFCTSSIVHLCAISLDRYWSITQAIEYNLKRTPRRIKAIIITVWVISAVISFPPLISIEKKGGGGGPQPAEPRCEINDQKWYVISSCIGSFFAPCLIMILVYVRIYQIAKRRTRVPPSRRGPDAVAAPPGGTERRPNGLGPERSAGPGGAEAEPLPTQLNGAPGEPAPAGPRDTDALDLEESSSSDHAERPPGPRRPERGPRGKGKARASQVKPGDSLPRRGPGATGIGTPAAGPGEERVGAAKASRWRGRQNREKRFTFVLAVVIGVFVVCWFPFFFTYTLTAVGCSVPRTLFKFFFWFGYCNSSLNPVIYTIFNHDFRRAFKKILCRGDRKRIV
It counts as functional, cell-based.

Test [2] deals with T2, B2 bradykinin receptor (Homo sapiens, UniProt P30411).
T2 sequence (P30411 whole entry): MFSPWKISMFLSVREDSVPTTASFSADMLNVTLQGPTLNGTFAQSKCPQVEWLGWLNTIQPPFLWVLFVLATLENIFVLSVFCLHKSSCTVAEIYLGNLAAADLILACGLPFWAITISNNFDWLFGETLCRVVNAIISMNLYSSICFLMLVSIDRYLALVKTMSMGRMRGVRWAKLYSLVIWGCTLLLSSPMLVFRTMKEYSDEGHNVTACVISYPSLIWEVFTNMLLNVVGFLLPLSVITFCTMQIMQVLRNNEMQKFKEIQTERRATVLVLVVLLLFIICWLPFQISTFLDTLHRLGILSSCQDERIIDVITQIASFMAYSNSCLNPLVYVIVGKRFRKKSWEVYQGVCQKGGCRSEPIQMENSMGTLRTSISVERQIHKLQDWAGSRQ

Test [3] addresses T3, Cannabinoid receptor 1 (Homo sapiens, UniProt P21554). It counts as functional, cell-based.
Test [4] has as its target T3, Cannabinoid receptor 1.
The target of test [5] is Glutamate receptor ionotropic, NMDA 1 (Rattus norvegicus, UniProt P35439).
Test [6] addresses T4, 5-hydroxytryptamine receptor 1A (Homo sapiens, UniProt P08908).
T4 sequence (P08908 whole entry): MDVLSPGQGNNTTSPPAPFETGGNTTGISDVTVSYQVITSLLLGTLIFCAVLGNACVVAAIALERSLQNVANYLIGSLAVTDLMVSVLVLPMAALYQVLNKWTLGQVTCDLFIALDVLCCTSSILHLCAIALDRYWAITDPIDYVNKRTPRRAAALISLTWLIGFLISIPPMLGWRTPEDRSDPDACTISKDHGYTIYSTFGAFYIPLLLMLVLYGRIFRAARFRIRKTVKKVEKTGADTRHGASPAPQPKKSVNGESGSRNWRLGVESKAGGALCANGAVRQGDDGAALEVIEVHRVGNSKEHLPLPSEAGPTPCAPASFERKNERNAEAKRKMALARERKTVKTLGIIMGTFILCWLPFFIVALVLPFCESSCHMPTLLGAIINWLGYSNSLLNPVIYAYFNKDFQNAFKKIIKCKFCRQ
It counts as functional, cell-based.

In test [7] the target is Melanocortin receptor 4 (Homo sapiens, UniProt P32245).
Test [8] deals with Motilin receptor (Homo sapiens, UniProt O43193).
In test [9] the target is T5, Progesterone receptor (Homo sapiens, UniProt P06401).
T5 sequence (P06401 whole entry): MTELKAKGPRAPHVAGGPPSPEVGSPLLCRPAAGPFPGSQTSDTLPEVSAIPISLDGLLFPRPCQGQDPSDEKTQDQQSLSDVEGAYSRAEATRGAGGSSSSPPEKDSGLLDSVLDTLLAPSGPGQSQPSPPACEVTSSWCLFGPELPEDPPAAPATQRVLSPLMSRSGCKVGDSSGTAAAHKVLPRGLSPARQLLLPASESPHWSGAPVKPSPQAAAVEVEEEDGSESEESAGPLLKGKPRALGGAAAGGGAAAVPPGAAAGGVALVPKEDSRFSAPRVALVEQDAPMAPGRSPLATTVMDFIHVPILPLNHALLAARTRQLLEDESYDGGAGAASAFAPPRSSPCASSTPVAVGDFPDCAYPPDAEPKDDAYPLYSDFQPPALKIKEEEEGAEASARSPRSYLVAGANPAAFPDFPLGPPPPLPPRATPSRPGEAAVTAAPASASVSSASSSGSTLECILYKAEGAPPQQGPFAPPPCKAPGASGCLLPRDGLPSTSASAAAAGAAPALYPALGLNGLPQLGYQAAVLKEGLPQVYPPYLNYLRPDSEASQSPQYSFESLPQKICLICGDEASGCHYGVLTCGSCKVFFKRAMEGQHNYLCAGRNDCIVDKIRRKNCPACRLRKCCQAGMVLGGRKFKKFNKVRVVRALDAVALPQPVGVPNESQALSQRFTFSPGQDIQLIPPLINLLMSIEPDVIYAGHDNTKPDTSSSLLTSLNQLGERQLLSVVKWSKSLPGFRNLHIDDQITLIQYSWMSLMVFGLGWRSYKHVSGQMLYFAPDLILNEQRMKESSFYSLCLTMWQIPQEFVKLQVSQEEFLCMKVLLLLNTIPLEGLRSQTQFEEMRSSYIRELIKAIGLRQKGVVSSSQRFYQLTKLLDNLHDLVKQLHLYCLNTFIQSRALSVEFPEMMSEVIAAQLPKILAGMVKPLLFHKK
It counts as functional.

The target in test [10] is T5, Progesterone receptor. It counts as functional. This is another data set of the same source.
The target in test [11] is T6, Thromboxane A2 receptor (Homo sapiens, UniProt P21731).
T6 sequence (P21731 whole entry): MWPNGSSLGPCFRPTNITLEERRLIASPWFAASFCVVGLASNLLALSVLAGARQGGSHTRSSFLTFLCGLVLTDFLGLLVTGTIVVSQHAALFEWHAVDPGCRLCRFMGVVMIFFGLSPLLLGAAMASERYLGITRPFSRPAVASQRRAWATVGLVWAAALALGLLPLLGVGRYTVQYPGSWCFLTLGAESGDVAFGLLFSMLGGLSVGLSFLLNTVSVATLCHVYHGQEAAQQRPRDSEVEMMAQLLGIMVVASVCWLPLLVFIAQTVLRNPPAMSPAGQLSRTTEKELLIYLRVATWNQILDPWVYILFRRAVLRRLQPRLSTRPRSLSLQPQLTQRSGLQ

In test [12] the target is Sodium-dependent dopamine transporter (Homo sapiens, UniProt Q01959).

Values joined by “and” are separate entries in the source; they are usually repeats but may differ in a detail not shown here. Equal entries are not always repeated.
Note: assay procedure not described here.

Chain of Sodium-dependent dopamine transporter (Q01959 whole entry): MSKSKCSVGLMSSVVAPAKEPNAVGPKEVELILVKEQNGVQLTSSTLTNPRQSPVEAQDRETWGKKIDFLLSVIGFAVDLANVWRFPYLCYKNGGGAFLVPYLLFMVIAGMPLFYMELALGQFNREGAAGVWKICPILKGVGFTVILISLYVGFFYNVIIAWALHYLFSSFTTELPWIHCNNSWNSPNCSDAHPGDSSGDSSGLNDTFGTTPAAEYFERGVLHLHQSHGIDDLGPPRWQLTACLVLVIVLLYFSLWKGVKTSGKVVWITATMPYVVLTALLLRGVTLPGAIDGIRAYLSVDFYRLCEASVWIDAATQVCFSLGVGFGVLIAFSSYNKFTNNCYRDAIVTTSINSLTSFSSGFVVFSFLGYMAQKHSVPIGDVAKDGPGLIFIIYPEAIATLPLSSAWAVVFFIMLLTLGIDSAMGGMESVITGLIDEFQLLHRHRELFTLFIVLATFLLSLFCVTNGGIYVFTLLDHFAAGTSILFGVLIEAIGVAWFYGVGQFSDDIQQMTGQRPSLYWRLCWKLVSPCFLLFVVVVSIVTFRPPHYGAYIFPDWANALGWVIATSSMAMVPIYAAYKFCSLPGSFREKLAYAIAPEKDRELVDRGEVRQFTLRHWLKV
T3 sequence (P21554 whole entry): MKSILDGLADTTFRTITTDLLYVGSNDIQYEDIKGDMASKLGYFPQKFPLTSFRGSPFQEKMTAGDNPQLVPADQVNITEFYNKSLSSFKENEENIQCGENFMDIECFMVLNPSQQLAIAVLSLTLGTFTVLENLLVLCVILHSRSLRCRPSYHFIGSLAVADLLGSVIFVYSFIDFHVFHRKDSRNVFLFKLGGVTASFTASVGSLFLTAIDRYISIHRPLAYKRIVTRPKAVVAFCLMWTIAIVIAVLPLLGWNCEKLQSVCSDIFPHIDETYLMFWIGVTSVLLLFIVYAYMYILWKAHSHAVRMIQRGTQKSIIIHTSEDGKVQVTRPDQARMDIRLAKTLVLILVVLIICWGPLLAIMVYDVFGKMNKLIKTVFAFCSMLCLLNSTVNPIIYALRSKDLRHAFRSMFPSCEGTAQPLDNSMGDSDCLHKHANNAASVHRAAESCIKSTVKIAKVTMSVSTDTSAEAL
Chain of Motilin receptor (O43193 whole entry): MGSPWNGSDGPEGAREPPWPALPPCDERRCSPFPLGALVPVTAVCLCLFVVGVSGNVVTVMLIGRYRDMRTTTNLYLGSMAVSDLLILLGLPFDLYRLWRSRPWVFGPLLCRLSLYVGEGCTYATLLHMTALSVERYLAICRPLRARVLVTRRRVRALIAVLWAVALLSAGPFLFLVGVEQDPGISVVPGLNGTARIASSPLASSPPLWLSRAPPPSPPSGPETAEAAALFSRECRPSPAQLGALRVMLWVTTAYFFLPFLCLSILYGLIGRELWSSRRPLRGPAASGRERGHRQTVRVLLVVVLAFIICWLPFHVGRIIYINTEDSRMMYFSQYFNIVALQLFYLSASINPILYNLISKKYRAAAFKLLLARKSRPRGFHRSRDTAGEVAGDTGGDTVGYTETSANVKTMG
Chain of Melanocortin receptor 4 (P32245 whole entry): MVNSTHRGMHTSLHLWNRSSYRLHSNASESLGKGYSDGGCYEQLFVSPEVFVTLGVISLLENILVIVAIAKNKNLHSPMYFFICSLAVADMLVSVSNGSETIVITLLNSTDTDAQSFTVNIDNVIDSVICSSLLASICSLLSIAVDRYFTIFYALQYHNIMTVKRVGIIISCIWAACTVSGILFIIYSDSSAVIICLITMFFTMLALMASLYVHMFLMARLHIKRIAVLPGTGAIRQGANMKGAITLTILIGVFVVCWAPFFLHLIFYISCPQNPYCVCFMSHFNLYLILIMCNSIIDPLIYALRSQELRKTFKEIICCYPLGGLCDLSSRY

As a reminder, the AC50 is the concentration at which the activity in the assay is half-maximal. A higher AC50 goes with weaker potency. Regarding `CC(C)N(CCC(C(N)=O)(c1ccccc1)c1ccccn1)C(C)C` (configuration not stated) [DISOPYRAMIDE], the AC50 in test [1] is > 10 µM; in test [2], > 30 µM; in [3], > 30 µM; in [4] it was > 10 µM; in test [5], > 10 µM; in test [6], > 10 µM. The AC50 in [7] is > 30 µM; in [8], > 30 µM; in [9], > 30 µM; in test [10] it was 27 µM; in test [11] it was > 30 µM; in [12], > 30 µM.

With `C[C@]12C=CC(=O)N[C@@H]1CC[C@@H]1[C@@H]2CC[C@]2(C)[C@@H](C(=O)Nc3cc(C(F)(F)F)ccc3C(F)(F)F)CC[C@@H]12` [DUTASTERIDE], the AC50 in test [1] was > 10 µM; in test [2], > 10 µM; in test [3], > 30 µM; in test [4] it was > 10 µM; in [5], > 10 µM; in test [6] it was > 10 µM. The AC50 in test [7], in test [8], in test [9], in test [10], in test [11] and in test [12] was > 10 µM each time.

Regarding `N[C@@H](CC(=O)N1CCn2c(nnc2C(F)(F)F)C1)Cc1cc(F)c(F)cc1F` [SITAGLIPTIN], the AC50 in test [1] was > 30 µM; in test [2], > 10 µM; in test [3], > 30 µM; in test [4], > 10 µM; in [5], > 10 µM; in [6] it was > 30 µM. The AC50 in test [7] is > 10 µM; in test [8] it was > 30 µM; in test [9], > 30 µM; in test [10], > 30 µM; in test [11] it was > 10 µM; in test [12] it was > 30 µM.

Take `O=C1C(CC[S+]([O-])c2ccccc2)C(=O)N(c2ccccc2)N1c1ccccc1` (configuration not stated) [SULFINPYRAZONE]: the AC50 was > 30 µM in [1]; > 10 µM in test [2]; > 30 µM in [3]; > 10 µM in test [4]; > 10 µM in [5]; > 10 µM in test [6]. Further, the half-maximal activity concentration (AC50) in test [7], in test [8], in test [9], in test [10], in test [11] and in [12] was > 10 µM throughout.

As to `C=CC[C@@H]1/C=C(\C)C[C@H](C)C[C@H](OC)[C@H]2O[C@@](O)(C(=O)C(=O)N3CCCC[C@H]3C(=O)O[C@H](/C(C)=C/[C@@H]3CC[C@@H](O)[C@H](OC)C3)[C@H](C)[C@@H](O)CC1=O)[C@H](C)C[C@@H]2OC` [TACROLIMUS ANHYDROUS], the AC50 in test [1] was > 10 µM; in test [2], > 30 µM; in [3] it was > 30 µM; in test [4], > 10 µM; in test [5], > 10 µM; in test [6], > 30 µM. The AC50 in [7] was > 30 µM; in test [8] it was 9.44 µM and > 10 µM; in test [9], > 30 µM; in test [10] it was > 30 µM; in test [11] it was 15.3 µM; in test [12] it was 19.6 µM and > 10 µM.

Take `Cc1onc(-c2ccccc2)c1-c1ccc(S(N)(=O)=O)cc1` [VALDECOXIB]: the AC50 in test [1] is > 10 µM; in test [2] it was > 30 µM; in [3], > 30 µM; in test [4], > 10 µM; in test [5] it was > 10 µM; in test [6], > 10 µM. The AC50 in [7], in test [8], in test [9], in test [10], in test [11] and in test [12] was > 30 µM throughout.
